Experimental data taken from US10633348B2, “Methods to treat lymphoplasmacytic lymphoma” (Dana-Farber Cancer Institute, Inc., priority 2013, dated 2020).
pEC50: −log10 of the molar value. Where two headings read alike, the source gives them in different places.

Legend:
Assay type in all cases: cell-based
Mec1 = assay: CellTiter-Glo cell viability assay; conditions: Homo sapiens, 72 hours
OCI-Ly3 = assay: CellTiter-Glo cell viability assay; conditions: Homo sapiens, OCI-Ly3, 72 h
ATR = system: ATR
AurA = system: AurA
CAMK1D = system: CAMK1D
CAMK2D = system: CAMK2D
CAMKK2 = system: CAMKK2
CHK1 = system: CHK1
CK1a = system: CK1a
CK2a2 = system: CK2a2
DGKH = system: DGKH
DNAPK = system: DNAPK
ERK1 = system: ERK1
JNK1, JNK2, JNK3 = assay: KiNativ kinase profiling in A375 cells; conditions: Lys2, SEQ ID NO 67, 1.0 μM
LATS1 = system: LATS1
LATS2 = system: LATS2
LKB1 = system: LKB1
MAP2K4 = system: MAP2K4
MAP2K5 = system: MAP2K5
MARK3, MARK4 = assay: KiNativ kinase profiling in A375 cells; conditions: Lys1, SEQ ID NO 94, 1.0 μM
MARK4 = system: MARK4
MLKL = system: MLKL
MSK2 domain1 = system: MSK2 domain1
NDR2 = system: NDR2
NEK3 = system: NEK3
NEK9 = system: NEK9
p38b = system: p38b
p70S6K = system: p70S6K
PCTAIRE2, PCTAIRE3 = assay: KiNativ kinase profiling in A375 cells; conditions: Lys1, SEQ ID NO 135, 1.0 μM
PIK3CD = system: PIK3CD
PIP4K2A = system: PIP4K2A
PIP4K2C = system: PIP4K2C
PKR = system: PKR
PRP4 = system: PRP4
PRPK = system: PRPK
RAF1 = system: RAF1
RIPK3 = system: RIPK3
RSK1 domain1 = system: RSK1 domain1
SLK = system: SLK
SRC = system: SRC
SRPK1 = system: SRPK1
STK33 = system: STK33
TAK1 = system: TAK1
TBK1 = system: TBK1
ULK1 = system: ULK1
[1] = system: ZC1/HGK, ZC2/TNIK, ZC3/MINK; assay: KiNativ kinase profiling in A375 cells; conditions: Lys2, SEQ ID NO 198, 1.0 μM
OCI-Ly7 = assay: CellTiter-Glo cell viability assay; conditions: Homo sapiens, 72 hours
TMD8 = assay: CellTiter-Glo cell viability assay; conditions: Homo sapiens, 72 hours

With `CCN1CCN(Cc2ccc(NC(=O)c3ccc(C)c(Oc4cc(N)ncn4)c3)cc2C(F)(F)F)CC1` [(A-4), 3-((6-aminopyrimidin-4-yl)oxy)-N-(4-((4-ethylpiperazin-1-yl)methyl)-3-(trifluoromethyl)phenyl)-4-methylbenzamide] the pEC50 (Mec1) was 4.84, the pEC50 (OCI-Ly3) was 4.50 and the “inhibition of kinase labeling” value (ATR) was 23.0%. The “inhibition of kinase labeling” value (AurA) was −16.0%, the “inhibition of kinase labeling” value (CAMK1D) was −6.0% and the “inhibition of kinase labeling” value (CAMK2D) was −8.1%. For the same compound, the “inhibition of kinase labeling” value (CAMKK2) was 6.2%, the “inhibition of kinase labeling” value (CHK1) was −5.0% and the “inhibition of kinase labeling” value (CK1a) was −0.6%. The “inhibition of kinase labeling” value (CK2a2) was −18.2%, the “inhibition of kinase labeling” value (DGKH) was −6.3% and the “inhibition of kinase labeling” value (DNAPK; ATP site peptide SEQ ID NO 37) was −61.5%. For the same compound, the “inhibition of kinase labeling” value (DNAPK; ATP site peptide SEQ ID NO 38) was −64.6%, the “inhibition of kinase labeling” value (ERK1) was −9.0% and the “inhibition of kinase labeling” value (JNK1, JNK2, JNK3) was 77.2%. The “inhibition of kinase labeling” value (LATS1) was 5.4%, the “inhibition of kinase labeling” value (LATS2) was −1.9% and the “inhibition of kinase labeling” value (LKB1) was −6.0%. For the same compound, the “inhibition of kinase labeling” value (MAP2K4) was −14.1%, the “inhibition of kinase labeling” value (MAP2K5) was 20.5% and the “inhibition of kinase labeling” value (MARK3, MARK4) was −16.2%. The “inhibition of kinase labeling” value (MARK4) was 2.9%, the “inhibition of kinase labeling” value (MLKL) was −14.9% and the “inhibition of kinase labeling” value (MSK2 domain1) was −64.9%. For the same compound, the “inhibition of kinase labeling” value (NDR2) was −10.9%, the “inhibition of kinase labeling” value (NEK3) was 13.1% and the “inhibition of kinase labeling” value (NEK9) was −1.2%. The “inhibition of kinase labeling” value (p38b) was 51.4%, the “inhibition of kinase labeling” value (p70S6K) was −2.3% and the “inhibition of kinase labeling” value (PCTAIRE2, PCTAIRE3) was 11.7%. For the same compound, the “inhibition of kinase labeling” value (PIK3CD) was 2.2%, the “inhibition of kinase labeling” value (PIP4K2A) was −26.7% and the “inhibition of kinase labeling” value (PIP4K2C) was 5.2%. For the same compound, the “inhibition of kinase labeling” value (PKR) was −28.4%, the “inhibition of kinase labeling” value (PRP4) was −20.1% and the “inhibition of kinase labeling” value (PRPK) was −13.7%. The “inhibition of kinase labeling” value (RAF1) was 36.6%, the “inhibition of kinase labeling” value (RIPK3) was 32.6% and the “inhibition of kinase labeling” value (RSK1 domain1) was −20.9%. For the same compound, the “inhibition of kinase labeling” value (SLK) was −14.3%, the “inhibition of kinase labeling” value (SRC) was 76.1% and the “inhibition of kinase labeling” value (SRPK1) was −34.1%. The “inhibition of kinase labeling” value (STK33) was 12.9%, the “inhibition of kinase labeling” value (TAK1) was 32.0% and the “inhibition of kinase labeling” value (TBK1) was 18.2%. The “inhibition of kinase labeling” value (ULK1) was −6.0% and the “inhibition of kinase labeling” value [1] was 19.2%.

In the case of `CCN1CCN(Cc2ccc(NC(=O)c3ccc(C)c(Oc4ccnc(Nc5cnn(C)c5)n4)c3)cc2C(F)(F)F)CC1` [(A-14), N-(4-((4-ethylpiperazin-1-yl)methyl)-3-(trifluoromethyl)phenyl)-4-methyl-3-((2-((1-methyl-1H-pyrazol-4-yl)amino)pyrimidin-4-yl)oxy)benzamide], the pEC50 (OCI-Ly7) was 6.76 and the pEC50 (TMD8) was 7.35.
